PubChem BioAssay (NCI)
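Exposure lasted 48 hours, with cells grown in 96-well plates and compounds tested at five concentrations. TGI is the concentration that stops growth completely.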

Assays:
Assay in all cases: NCI-60 cell line screen, 48 h
DMS 114 small cell lung = system: DMS 114 small cell lung
SN12C renal = system: SN12C renal
786-0 renal = system: 786-0 renal
UO-31 renal = system: UO-31 renal
XF 498 CNS = system: XF 498 CNS
LXFL 529 NSCLC = system: LXFL 529 NSCLC
HOP-62 NSCLC = system: HOP-62 NSCLC
EKVX NSCLC = system: EKVX NSCLC
LOX IMVI melanoma = system: LOX IMVI melanoma
MOLT-4 leukemia = system: MOLT-4 leukemia
NCI-H522 lung = system: NCI-H522 lung
CCRF-CEM leukemia = system: CCRF-CEM leukemia
SK-OV-3 ovarian = system: SK-OV-3 ovarian
CAKI-1 renal = system: CAKI-1 renal
UACC-62 melanoma = system: UACC-62 melanoma
SK-MEL-5 melanoma = system: SK-MEL-5 melanoma
HCC-2998 colon = system: HCC-2998 colon
MALME-3M melanoma = system: MALME-3M melanoma
IGROV1 ovarian = system: IGROV1 ovarian
OVCAR-8 ovarian = system: OVCAR-8 ovarian
OVCAR-4 ovarian = system: OVCAR-4 ovarian
HCT-15 colon = system: HCT-15 colon
COLO 205 colon = system: COLO 205 colon
TK-10 renal = system: TK-10 renal
SW-620 colon = system: SW-620 colon
HT29 colon = system: HT29 colon
A549 NSCLC = system: A549 NSCLC
M19-MEL melanoma = system: M19-MEL melanoma
HOP-92 NSCLC = system: HOP-92 NSCLC
OVCAR-3 ovarian = system: OVCAR-3 ovarian
RPMI-8226 leukemia = system: RPMI-8226 leukemia
UACC-257 melanoma = system: UACC-257 melanoma
OVCAR-5 ovarian = system: OVCAR-5 ovarian
KM12 colon = system: KM12 colon
SF-539 CNS = system: SF-539 CNS
DLD-1 colon = system: DLD-1 colon
HOP-18 NSCLC = system: HOP-18 NSCLC
U251 CNS = system: U251 CNS
ACHN renal = system: ACHN renal
DMS 273 small cell lung = system: DMS 273 small cell lung
M14 melanoma = system: M14 melanoma
KM20L2 colon = system: KM20L2 colon
SNB-19 CNS = system: SNB-19 CNS
A498 renal = system: A498 renal
SNB-78 CNS = system: SNB-78 CNS
K-562 leukemia = system: K-562 leukemia
HL-60(TB) leukemia = system: HL-60(TB) leukemia
NCI-H226 lung = system: NCI-H226 lung
SF-295 CNS = system: SF-295 CNS
SK-MEL-28 melanoma = system: SK-MEL-28 melanoma
SR leukemia = system: SR leukemia
HCT-116 colon = system: HCT-116 colon
SK-MEL-2 melanoma = system: SK-MEL-2 melanoma
SNB-75 CNS = system: SNB-75 CNS
NCI-H460 lung = system: NCI-H460 lung
NCI-H23 lung = system: NCI-H23 lung
SF-268 CNS = system: SF-268 CNS
RXF 393 renal = system: RXF 393 renal

Measured: TGI

COc1ccc(C(c2ccccc2C(=O)O)c2ccc(OC)c3ccccc23)c2ccccc12
44.4 µM: SW-620 colon
13.4 µM: HOP-18 NSCLC
27.9 µM: MALME-3M melanoma
20.7 µM: LXFL 529 NSCLC
31.4 µM: OVCAR-5 ovarian
34.8 µM: OVCAR-8 ovarian
38.1 µM: HL-60(TB) leukemia
32.7 µM: NCI-H522 lung
66 µM: MOLT-4 leukemia
23.5 µM: ACHN renal
32.4 µM: DMS 273 small cell lung
19.4 µM: UO-31 renal
19.8 µM: HCC-2998 colon
26.5 µM: KM20L2 colon
27.6 µM: M19-MEL melanoma
31 µM: A549 NSCLC
50.8 µM: HOP-92 NSCLC
45.3 µM: TK-10 renal
46.7 µM: XF 498 CNS
28.8 µM: HCT-15 colon
50.6 µM: LOX IMVI melanoma
16.4 µM: UACC-62 melanoma
24.4 µM: SF-539 CNS
63.5 µM: NCI-H226 lung
30.5 µM: 786-0 renal
20.8 µM: RPMI-8226 leukemia
49.8 µM: EKVX NSCLC
23.1 µM: KM12 colon
26.6 µM: OVCAR-3 ovarian | U251 CNS
27.5 µM: HT29 colon
25.4 µM: SNB-19 CNS
45.1 µM: SK-OV-3 ovarian
29.7 µM: SN12C renal
24.5 µM: UACC-257 melanoma
33 µM: M14 melanoma
25.5 µM: IGROV1 ovarian
> 100 µM: CCRF-CEM leukemia | K-562 leukemia
50.4 µM: SNB-78 CNS
63.4 µM: CAKI-1 renal
30.2 µM: HOP-62 NSCLC | COLO 205 colon
21.1 µM: DMS 114 small cell lung
34.2 µM: SK-MEL-5 melanoma
22.2 µM: DLD-1 colon
39 µM: A498 renal
25.6 µM: OVCAR-4 ovarian | SF-295 CNS

Cc1ccc2nc(N)[nH]c(=O)c2c1Sc1ccncc1
> 31.6 µM: UACC-62 melanoma | K-562 leukemia
not listed: NCI-H226 lung
> 100 µM: all other assays above

Oc1ccc(-c2c3ccccc3c(-c3ccc(O)cc3)c3ccccc23)cc1
> 100 µM: all assays above

CC(=O)OC1C[C@H]2C(OC(=O)c3ccccc3)C3C4(OC(C)=O)COC4C[C@H](OC(C)=O)[C@@]3(C)C(OC(C)=O)[C@H](OC(C)=O)C(=C1C)C2(C)C (stereo partly drawn)
79.8 µM: UO-31 renal
72 µM: HL-60(TB) leukemia
63.8 µM: XF 498 CNS
79.2 µM: NCI-H522 lung
97.8 µM: SK-MEL-2 melanoma
31.4 µM: CAKI-1 renal
45.2 µM: SNB-75 CNS
49.3 µM: RXF 393 renal
not listed: HCC-2998 colon | HOP-92 NSCLC | U251 CNS | SR leukemia
> 100 µM: all other assays above
